According to patent publication US20250268873A1, “COMBINATION OF DUAL ATM AND DNA-PK INHIBITORS AND IMMUNOTHERAPEUTIC AGENTS FOR USE IN CANCER THERAPY” (XRAD THERAPEUTICS, INC., priority 2021, published 2025):

Experiments:
MC38 tumors = assay: MC38 syngeneic murine tumor model; format: in vivo; conditions: for Day 20 regression: p<0.05
Protocol: The murine colon adenocarcinoma cell line, MC38-NCI.TD1 (MC38), was cultured in Dulbecco's modified Eagle's medium (DMEM), 10% fetal bovine serum (FBS), 25 μg/ml gentamicin, 2 mM L-glutamine, 1% penicillin/streptomycin/L-glutamine at 37° C. in 5% CO2. Cells were dissociated in 0.25% trypsin/2.21 mM ethylenediaminetetraacetic acid in Hank's Balanced Salt Solution and brought to a density of 5×10^6 cells/200 μL in DMEM. Tumors were initiated by injection of the cell suspension subcutaneously in the right axilla of female C57BL/6 mice (Jackson Laboratory). All mice were sorted into 7 study groups (n=10) based on caliper estimation of tumor burden. Mice were distributed to ensure that the mean tumor burden for all groups was within 10% of the overall mean tumor burden for the study population (90 mm^3). Mice were monitored daily for clinical signs and weighed and measured three times weekly. The study endpoint was 30 days post staging or when tumor burden was >2000 mm^3.
The vehicle for compound 569 was 0.5% hydroxypropyl methyl cellulose (HPMC) and 0.1% Tween 80 dissolved in deionized water. Vehicle for compound 569 and compound 569 (12 mg/kg) were administered by oral gavage once daily starting the day of staging for two consecutive days (qd×2), in combination with focal radiation. Mice stratified to the radiation therapy groups received 5 Gy per day for two consecutive days (qd×2) 60 minutes following administration of the vehicle or compound 569. The mice were anesthetized with isoflurane during the radiation treatment, which was performed with the Xstrahl Life Sciences Small Animal Radiation Research Platform (Xstrahl, Inc.) Mice were irradiated at an average dose rate of 2.5 Gy/min.
The vehicle for isotype control (clone 2A3) anti-mouse PD-1 (anti-mPD-1; Bio X Cell) and anti-mPD-1 (Clone RMP1-14; Bio X Cell) was phosphate buffered saline (PBS). Isotype control anti-mPD-1 (10 mg/kg) and anti-mPD-1 (10 mg/kg) were administered intraperitonealy twice weekly for 2 weeks starting day 2 post staging. Treatment schedules for the various groups of animals are summarized below: • Group 1 mice received vehicle qd×2+10 mg/kg isotype control (q3d×2, 3 days off)×2; start 2 days post stage. • Group 2 mice received 10 mg/kg anti-mPD-1 (q3d×2, 3 days off)×2; start 2 days post stage. • Group 3 mice received focal irradiation 5 Gy qd×2+10 mg/kg isotype control (q3d×2, 3 days off)×2; start 2 days post stage. • Group 4 mice received focal irradiation 5 Gy qd×2+10 mg/kg anti-mPD-1 (q3d×2, 3 days off)×2; start 2 days post stage. • Group 5 mice received 12 mg/kg Compound 569 qd×2 (1 hr prior to focal irradiation)+5 Gy qd×2 • Group 6 mice received 12 mg/kg Compound 569 qd×2+10 mg/kg anti-mPD-1 (q3d×2, 3 days off)×2; start 2 days post stage. • Group 7 mice received 12 mg/kg Compound 569 qd×2 (1 hr prior to focal irradiation)+5 Gy qd×2+10 mg/kg anti-mPD-1 (q3d×2, 3 days off)×2; start 2 days post stage.
• ΔC and ΔT—Are individual mouse endpoints that are calculated for each mouse as follows:
[formula] • Where Tt and T0 are the tumor burdens of a treated mouse at time t or at the initiation of dosing, respectively. ΔC reflects similar calculations for the control mice. • Median ΔT/ΔC—Is a group endpoint. It is calculated for each day of treatment as:
[formula] • The results are presented as a %. When the median ΔT/ΔC is negative (the median treated tumor burden is regressing), the median ΔT/ΔC is not reported and the Median % Regression is reported instead. • % Regression—Is a group endpoint. It indicates the percentage reduction in the Median tumor volume from baseline. It is calculated as: […]
Day 20 post staging was chosen for ΔT/ΔC since it was the last day all animals were on study prior to euthanasia due to tumor burden. • Complete Regression (CR)—An animal is credited a complete regression if its tumor burden is reduced to an immeasurable volume at any point after the first treatment. […]

hERG channel = hERG channel (Homo sapiens (Human), UniProt Q12809); assay: In-Vitro hERG Inhibition Assay (manual patch clamp); format: cell-based; conditions: hERG-T-REx HEK 293 cells
Protocol: The hERG-T-REx™ HEK 293 cells (Invitrogen, K1236) were generated by transfecting the hERG coding sequence in the Tet-regulated expression vector pT-Rex-DEST30 into cells expressing the Tet-repressor (T-Rex™ HEK293), thereby producing cells that can be induced to express high level of hERG channels. The cells were cultured in a medium containing of 85% DMEM, 10% dialyzed FBS, 0.1 mM NEAA, 25 mM HEPES, 100 U/mL Penicillin-Streptomycin, 5 μg/mL Blasticidin, and 400 μg/mL Geneticin. The cells were split using TrypLE™ Express (Gibco, 12604) about three times a week and maintained between ˜40% to ˜80% confluence. Before the assay, the cells were induced with doxycycline (Sigma, D9891) at 1 μg/mL for 48 hours. On the experiment day, the induced cells were resuspended and plated onto the coverslips at 5×10^5 cells/per 6 cm cell culture dish prior to use. The hERG channel-mediated current was acquired by manual patch clamp recording systems equipped with amplifiers (HEKA, EPC10 and Molecular Devices, multiclamp 700B) and the inverted phase contrast microscope (Olympus, IX51/71/73). Glass pipettes were prepared by micropipette puller (Sutter, P97 and Narishige, PC-10) and qualified by the pipette resistance in the range of 2-4 MOhms. […] The whole-cell configuration was maintained with access resistance continuously monitored (<15 MOhms). […]

[1] = Group 5: compound 569 12 mg/kg qd×2 + radiation 5 Gy qd×2
[2] = Group 7: compound 569 + radiation + anti-mPD-1

Chain of hERG channel (Q12809 whole entry): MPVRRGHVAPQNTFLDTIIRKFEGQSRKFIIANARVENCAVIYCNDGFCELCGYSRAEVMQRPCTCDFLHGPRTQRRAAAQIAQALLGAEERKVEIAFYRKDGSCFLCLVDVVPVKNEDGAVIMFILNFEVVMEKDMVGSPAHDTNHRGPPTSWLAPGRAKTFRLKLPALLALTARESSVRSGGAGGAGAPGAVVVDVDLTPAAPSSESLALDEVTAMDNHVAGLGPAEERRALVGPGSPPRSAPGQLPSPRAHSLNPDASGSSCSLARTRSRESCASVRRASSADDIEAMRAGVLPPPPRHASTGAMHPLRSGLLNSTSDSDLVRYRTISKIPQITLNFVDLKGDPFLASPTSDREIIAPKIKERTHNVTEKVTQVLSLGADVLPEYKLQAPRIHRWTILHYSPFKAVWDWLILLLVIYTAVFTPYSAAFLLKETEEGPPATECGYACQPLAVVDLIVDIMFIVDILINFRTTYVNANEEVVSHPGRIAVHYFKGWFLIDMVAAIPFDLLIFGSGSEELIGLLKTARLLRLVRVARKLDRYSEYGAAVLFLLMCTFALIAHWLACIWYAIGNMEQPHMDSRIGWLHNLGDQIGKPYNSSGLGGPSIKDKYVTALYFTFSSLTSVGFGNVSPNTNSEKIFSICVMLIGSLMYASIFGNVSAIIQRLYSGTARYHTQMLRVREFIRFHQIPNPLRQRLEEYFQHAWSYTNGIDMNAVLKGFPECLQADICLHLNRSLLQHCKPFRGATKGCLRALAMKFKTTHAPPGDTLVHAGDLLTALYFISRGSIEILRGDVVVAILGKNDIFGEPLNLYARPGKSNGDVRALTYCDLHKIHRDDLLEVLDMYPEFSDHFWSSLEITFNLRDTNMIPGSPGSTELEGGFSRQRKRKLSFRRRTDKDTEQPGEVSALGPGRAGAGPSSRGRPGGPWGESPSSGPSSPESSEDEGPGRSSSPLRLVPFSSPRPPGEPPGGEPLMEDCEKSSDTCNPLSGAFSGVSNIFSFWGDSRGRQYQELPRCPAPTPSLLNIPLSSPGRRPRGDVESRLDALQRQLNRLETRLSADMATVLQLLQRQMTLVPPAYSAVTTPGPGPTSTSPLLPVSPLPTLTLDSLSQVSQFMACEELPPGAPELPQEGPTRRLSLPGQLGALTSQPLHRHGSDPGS

CC(C)NCCOc1ncc(-c2cc3c4c(cnc3cc2F)N(C)C(=O)C42CCC2)cc1NS(C)(=O)=O [Compound 569, N-(5-(7′-Fluoro-3′-methyl-2′-oxo-2′,3′-dihydrospiro[cyclobutane-1,1′-pyrrolo[2,3-c]quinolin]-8′-yl)-2-(2-(isopropylamino)ethoxy)pyridin-3-yl)methanesulfonamide]
incidence of complete regressions (CR) (MC38 tumors; [1]): 50% | incidence of tumor free survivors (TFS) (MC38 tumors; [1]): 30% | Day 20 regression (MC38 tumors; [1]): 22% | Day 20 median ΔT/ΔC (MC38 tumors; Group 6: compound 569 12 mg/kg po qd×2 + anti-mPD-1 10 mg/kg ip, p>0.05): 64% | incidence of death (MC38 tumors; Group 6: compound 569 12 mg/kg qd×2 + anti-mPD-1 10 mg/kg, 1 death, n=10): 10% | Day 20 regression (MC38 tumors; Group 7: compound 569 12 mg/kg qd×2 + radiation 5 Gy qd×2 + anti-mPD-1 10 mg/kg): 99% | incidence of complete regressions (CR) (MC38 tumors; [2]): 90% | incidence of tumor free survivors (TFS) (MC38 tumors; [2]): 90% | IC50 (hERG channel): > 30 µM
